The source of these data is patent US20060204481A1, “Methods of promoting cell viability” (priority 2003, published 2006).

In test [1] the test system is TUNEL-positive cells in VM tissue cultures. Description: TUNEL assay of apoptosis in VM tissue cultures. In kind it is cell-based, rat. Conditions: 50 μM TUDCA, p<0.01. The procedure:
In order to examine the effects of TUDCA on apoptosis and the survival of dopamine neurons in VM tissue cultures under serum-free conditions and to determine an appropriate dosage of TUDCA, primary neuronal cultures were prepared from the VM tissue of SD rat embryos and incubated with or without the addition of TUDCA (Calbiochem, La Jolla, Calif., free base, dissolved in 0.15M (where “M” is molar concentration) NaHCO3 buffer). […] Therefore, TUDCA was added to a final concentration of 50 μM to the culture medium when the culture medium was switched to serum-free conditions after two days in vitro. Neural survival and apoptosis were determined by counting TH-positive cells and TUNEL-positive cells in the cultures two or seven days in vitro. […]
For each experimental series, pooled VM tissue from 24-32 embryos was incubated in 0.1% trypsin (Sigma, St. Louis, Mo.)/0.05% DNase (Sigma, St. Louis Mo.) at 37 degrees Celsius (° C.) for 20 minutes (min), and mechanically dissociated using a 1 milliliter (ml) Gilson pipette. […] The cell number and viabilities of dissociated cells were assessed with a hemocytometer using trypan blue dye exclusion. […]
For the cell culture experiments, the number of TUNEL-positive cells was assessed at ×400 magnification with the aid of a 400-μm square, reticule grid. […] Average number of TUNEL-positive cells was calculated and represented a value for single animals.

In test [2] the test system is TUNEL-positive cells in the grafted areas. The test is described as follows: TUNEL assay of apoptosis in graft areas 4 days post-transplantation. In kind it is in vivo, rat. Conditions: normal rats, p<0.01. As for the experimental part:
For the TUDCA-treated rats, a 50 μM concentration of TUDCA was added to the media when nigral tissue was trypsinized and dissociated. Two microliters of cell suspension containing TUDCA were then stereotaxically injected into the striatum of SD rats. For the control animals, the same amount of vehicle solution was added to the media. In the first series of transplantation experiment, normal rats that received neural transplants were sacrificed 4 days post-grafting and brain sections were prepared for the terminal deoxynucleotidyl transferase (TdT)-mediated dUTP-biotin nick end labeling (TUNEL) assay to determine apoptosis in the transplantation areas. […] Graft survival was assessed by counting the number of TH-positive neurons in the grafts.
A cell suspension technique was used to perform the neural transplants as previously described (A. Björklund et al., Acta. Physiol. Scand. Suppl. 522:9-18; 1983; P. Brundin et al., In: P. M. Conn, ed., Methods in Neurosciences, Lesions and Transplantation, Academic Press, San Diego, Vol 7, 1991:305-326). […] Before and after transplantation, the viabilities of the cell suspensions were assessed by the trypan blue dye exclusion method. […]

A further test has as its system striatal tissue cultures. The settings on record: cited from earlier work.

Each structure is given as a SMILES string.

`C[C@H](CCC(=O)NCCS(=O)(=O)O)[C@H]1CC[C@H]2[C@@H]3[C@@H](O)C[C@@H]4C[C@H](O)CC[C@]4(C)[C@H]3CC[C@]12C` [TUDCA, tauroursodeoxycholic acid]: the “number of TUNEL-positive cells, 7 DIV control versus 7 DIV TUDCA-treated cultures” value in test [1] was “significantly higher in 7 DIV control cultures”. For the same compound, the “number of apoptotic (TUNEL-positive) cells in the grafted areas compared to control group” value in test [2] is listed as “significantly smaller”. For the same compound, the “3-nitropropionic acid (3-NP)-mediated neuronal cell death” value in the test with striatal tissue cultures is listed as “significantly reduces”.
